Laboratory results as given in US9155795B2, “CXCR4 receptor compounds” (Anchor Therapeutics, Inc., priority 2010, dated 2015).
Where a SMILES comes first, the peptide text is derived from it. [ ]: non-standard residue; d: D form. The star is where a group is joined. Palmitoyl = CCCCCCCCCCCCCCCC(=O)*; Hyp = O=C(O)[C@@H]1C[C@@H](O)CN1; Cit = NC(=O)NCCC[C@H](N)C(=O)O; Nle = CCCC[C@H](N)C(=O)O; Dap = NC[C@H](N)C(=O)O

Target: T1, CXCR4 (Homo sapiens, UniProt P61073)
T1 construct: CCRF-CEM cells, a human T-cell ALL line that endogenously expresses CXCR4; endogenous in cells; host or cells: CCRF-CEM (human T-cell acute lymphoblastic leukemia line)
Assay: Calcium flux assay, agonist mode, Flexstation (CCRF-CEM cells)
Type: cell-based
Details: CCRF-CEM, percent of maximum response compared with SDF-1α, read-out: % Intrinsic Activity
From the text: Calcium Flux Assay is one of the most popular cell-based GPCR functional assays. It most often uses calcium sensing fluorescent dyes such as fura2 AM, fluo-4 and Calcium-4 to measure changes in intracellular calcium concentration. It is used mainly to detect GPCR signaling via Gαq subunit. Activation of these Gq-coupled GPCRs leads to activation of phospholipase C, which subsequently leads to increase in inositol phosphate production. IP3 receptors on endoplasmic reticulum sense the change then release calcium into cytoplasm. Intracellular calcium binding to the fluorescent dyes can be detected by instruments that quantify fluorescent intensities, such as FLIPR Tetra, Flexstation (MDS) and FDSS (Hamamatsu). In addition, to assess Gq-couple receptor signaling, a calcium flux assay can also be used to study Gs and Gi couple receptors by co-expressing CNG (cyclic nucleotide gated calcium channel) or chimeric G-proteins (Gqi5, Gsi5 for example). Activation of some Gi-coupled receptors can also be detected by calcium flux assay via Gβγ mediated phospholipase C activation.
The calcium flux assay was used to assess the test compounds' ability to activate the CXCR4 receptor in CCRF-CEM cells (human T lymphoblasts from acute lymphoblastic leukemia). […] After dye loading by incubating with Calcium-4 dye at 37° C. for 1 hour, cell plates were read at 37° C. using the using the Flexstation 3 workstation. Receptor activation was assessed by measuring changes in fluorescent intensity after the addition of the test compounds or the reference agonist SDF-1α on the using the Flexstation 3 workstation. EC50
and percent intrinsic actively were derived from the data collected. Intrinsic activity refers to the efficacy of the test compound and is calculated as the percent of maximum response compared with the response of the reference standard (i.e., natural agonist, SDF-1α).

T1 sequence (P61073 whole entry): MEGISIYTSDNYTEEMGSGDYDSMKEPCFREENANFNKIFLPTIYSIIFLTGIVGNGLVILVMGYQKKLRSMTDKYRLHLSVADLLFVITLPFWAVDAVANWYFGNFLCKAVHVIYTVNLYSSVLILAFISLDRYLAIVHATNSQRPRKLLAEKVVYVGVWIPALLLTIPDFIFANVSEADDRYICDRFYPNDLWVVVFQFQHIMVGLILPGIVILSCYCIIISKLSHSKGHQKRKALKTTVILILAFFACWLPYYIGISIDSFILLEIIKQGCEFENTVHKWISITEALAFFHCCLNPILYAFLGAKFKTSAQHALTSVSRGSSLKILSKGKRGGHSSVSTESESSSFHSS

Row | Structure (SMILES) | Emax [%]
1 | CCCCCCCCCCCCCCCC(=O)N[C@@H](CCSC)C(=O)NCC(=O)N[C@@H](Cc1ccc(O)cc1)C(=O)N[C@@H](CCC(N)=O)C(=O)N[C@@H](CCCCN)C(=O)N[C@@H](CCCCN)C(=O)N[C@@H](CC(C)C)C(=O)N[C@@H](CCCNC(=N)N)C(=O)N[C@@H](CO)C(=O)N[C@@H](Cc1c[nH]cn1)C(=O)N[C@H](C(=O)N[C@@H](CC(=O)O)C(=O)N[C@@H](CCCCN)C(=O)N[C@@H](Cc1ccc(O)cc1)C(=O)N[C@@H](CCCNC(=N)N)C(=O)N[C@@H](CC(C)C)C(N)=O)[C@@H](C)O [Compound 18] (Palmitoyl-MGYQKKLRSHTDKYRL-NH2; C-terminus assumed) | 93.4
2 | CCCCCCCCCCCCCCCC(=O)N[C@@H](COC)C(=O)NCC(=O)N[C@@H](Cc1ccc(O)cc1)C(=O)N[C@@H](CCC(N)=O)C(=O)N[C@@H](CCCCN)C(=O)N[C@@H](CCCCN)C(=O)N[C@@H](CC(C)C)C(=O)N[C@@H](CCCNC(=N)N)C(=O)N[C@@H](CO)C(=O)N[C@@H](COC)C(=O)N[C@H](C(=O)N[C@@H](CC(=O)O)C(=O)N[C@@H](CCCCN)C(=O)N[C@@H](Cc1ccc(O)cc1)C(=O)N[C@@H](CCCNC(=N)N)C(=O)N[C@@H](CC(C)C)C(N)=O)[C@@H](C)O [Compound 23] (Palmitoyl-S(Me)GYQKKLRSS(Me)TDKYRL-NH2) | 87.2
3 | CCCCCCCCCCCCCCCC(=O)N[C@@H](CCSC)C(=O)NCC(=O)N[C@@H](Cc1ccc(O)cc1)C(=O)N[C@@H](CCC(N)=O)C(=O)N[C@@H](CCCCN)C(=O)N[C@@H](CCCCN)C(=O)N[C@@H](CC(C)C)C(=O)N[C@@H](CCCNC(=N)N)C(=O)N[C@@H](CO)C(=O)N[C@@H](CCSC)C(=O)N[C@H](C(=O)N[C@@H](CC(=O)O)C(=O)N[C@@H](CCCCN)C(=O)N[C@@H](Cc1ccc(O)cc1)C(=O)N[C@@H](CCCNC(N)=O)C(=O)N[C@@H](CC(C)C)C(N)=O)[C@@H](C)O [Compound 14] (Palmitoyl-MGYQKKLRSMTDKY[Cit]L-NH2) | 3.61
4 | CCCCCCCCCCCCCCCC(=O)N[C@@H](CCSC)C(=O)NCC(=O)N[C@@H](Cc1ccc(O)cc1)C(=O)N[C@@H](CCC(N)=O)C(=O)N[C@@H](CCCCN)C(=O)N[C@@H](CCCCN)C(=O)N[C@@H](CC(C)C)C(=O)N[C@@H](CCCNC(=N)N)C(=O)N[C@@H](CO)C(=O)N[C@@H](CCCC)C(=O)N[C@H](C(=O)N[C@@H](CC(=O)O)C(=O)N[C@@H](CCCCN)C(=O)N[C@@H](Cc1ccc(O)cc1)C(=O)N[C@@H](CCCNC(=N)N)C(=O)N[C@@H](CC(C)C)C(N)=O)[C@@H](C)O [Compound 17] (Palmitoyl-MGYQKKLRS[Nle]TDKYRL-NH2; C-terminus assumed) | 62.7
5 | CCCCCCCCCCCCCCCC(=O)NCC(=O)NCC(=O)N[C@@H](Cc1ccc(O)cc1)C(=O)N[C@@H](CCC(N)=O)C(=O)N[C@@H](CCCCN)C(=O)N[C@@H](CCCCN)C(=O)N[C@@H](Cc1c[nH]cn1)C(=O)N[C@@H](CCCNC(=N)N)C(=O)N[C@@H](CO)C(=O)N[C@@H](C)C(=O)N[C@H](C(=O)N[C@@H](CC(=O)O)C(=O)N[C@@H](CCCCN)C(=O)N[C@@H](Cc1ccc(O)cc1)C(=O)N[C@@H](CCCNC(=N)N)C(=O)N[C@@H](CC(C)C)C(N)=O)[C@@H](C)O [Compound 38] (Palmitoyl-GGYQKKHRSATDKYRL-NH2; C-terminus assumed) | 86.8
6 | CCCCCCCCCCCCCCCC(=O)N[C@@H](CCSC)C(=O)NCC(=O)N[C@@H](Cc1ccc(O)cc1)C(=O)N[C@@H](CCC(N)=O)C(=O)N[C@@H](CCCCN)C(=O)N[C@@H](CCCCN)C(=O)N[C@@H](CC(C)C)C(=O)N[C@@H](CCCNC(=N)N)C(=O)N[C@@H](CO)C(=O)NCC(=O)N[C@H](C(=O)N[C@@H](CC(=O)O)C(=O)N[C@@H](CCCCN)C(=O)N[C@@H](Cc1ccc(O)cc1)C(=O)N[C@@H](CCCNC(=N)N)C(=O)N[C@@H](CC(C)C)C(N)=O)[C@@H](C)O [Compound 19] (Palmitoyl-MGYQKKLRSGTDKYRL-NH2; C-terminus assumed) | 101
7 | CCCCCCCCCCCCCCCC(=O)N[C@@H](CCSC)C(=O)NCC(=O)N[C@@H](Cc1ccc(O)cc1)C(=O)N[C@@H](CCC(N)=O)C(=O)N[C@@H](CCCCN)C(=O)N[C@@H](CCCCN)C(=O)N[C@@H](CC(C)C)C(=O)N[C@@H](CCCNC(=N)N)C(=O)N[C@@H](CO)C(=O)N[C@@H](CCSC)C(=O)N[C@H](C(=O)N[C@@H](CC(=O)O)C(=O)N[C@@H](CCCCN)C(=O)N[C@@H](Cc1ccc(O)cc1)C(=O)N[C@@H](CCCNC(=N)N)C(=O)N[C@H](C(N)=O)C(C)C)[C@@H](C)O [Compound 11] (Palmitoyl-MGYQKKLRSMTDKYRV-NH2; C-terminus assumed) | 61.7

Continued, values first:

Row | Emax [%] | Structure (SMILES)
8 | 88.9 | CCCCCCCCCCCCCCCC(=O)NCC(=O)NCC(=O)N[C@@H](Cc1ccc(O)cc1)C(=O)N[C@@H](CCC(N)=O)C(=O)N[C@@H](CCCCN)C(=O)N[C@@H](CCCCN)C(=O)N[C@@H](CC(C)C)C(=O)N[C@@H](CCCNC(=N)N)C(=O)N1CCC[C@@H]1C(=O)N[C@@H](C)C(=O)N[C@H](C(=O)N[C@@H](CC(=O)O)C(=O)N[C@@H](CCCCN)C(=O)N[C@@H](Cc1ccccc1)C(=O)N[C@@H](CCCNC(=N)N)C(=O)N[C@@H](CC(C)C)C(N)=O)[C@@H](C)O [Compound 29] (Palmitoyl-GGYQKKLR[dP]ATDKFRL-NH2; C-terminus assumed)
9 | 111 | CCCCCCCCCCCCCCCC(=O)NCC(=O)NCC(=O)N[C@@H](Cc1ccc(O)cc1)C(=O)N[C@@H](CCC(N)=O)C(=O)N[C@@H](CCCCN)C(=O)N[C@@H](CCCCN)C(=O)N[C@@H](CC(C)C)C(=O)N[C@@H](CCCNC(=N)N)C(=O)N1CCC[C@@H]1C(=O)N[C@@H](C)C(=O)N[C@H](C(=O)N[C@@H](CC(=O)O)C(=O)N[C@@H](CCCCN)C(=O)N[C@@H](Cc1ccc(O)cc1)C(=O)N[C@@H](CCCNC(=N)N)C(=O)N[C@@H](CC(C)C)C(N)=O)[C@@H](C)O [Compound 27] (Palmitoyl-GGYQKKLR[dP]ATDKYRL-NH2; C-terminus assumed)
10 | 103 | CCCCCCCCCCCCCCCC(=O)NCC(=O)NCC(=O)N[C@@H](Cc1ccc(O)cc1)C(=O)N[C@@H](CCC(N)=O)C(=O)N[C@@H](CCCCN)C(=O)N[C@@H](CCCCN)C(=O)N[C@@H](CC(C)C)C(=O)N[C@@H](CCCNC(=N)N)C(=O)N1CCC[C@@H]1C(=O)N[C@@H](CN)C(=O)N[C@H](C(=O)N[C@@H](CC(=O)O)C(=O)N[C@@H](CCCCN)C(=O)N[C@@H](Cc1ccc(O)cc1)C(=O)N[C@@H](CCCNC(=N)N)C(=O)N[C@@H](CC(C)C)C(N)=O)[C@@H](C)O [Compound 34] (Palmitoyl-GGYQKKLR[dP][Dap]TDKYRL-NH2; C-terminus assumed)
11 | 90.2 | CCCCCCCCCCCCCCCC(=O)N[C@@H](CCSC)C(=O)NCC(=O)N[C@@H](Cc1ccc(O)cc1)C(=O)N[C@@H](CCC(N)=O)C(=O)N[C@@H](CCCCN)C(=O)N1CCC[C@H]1C(=O)N[C@@H](CC(C)C)C(=O)N[C@@H](CCCNC(=N)N)C(=O)N[C@@H](CO)C(=O)N[C@@H](CCSC)C(=O)N[C@H](C(=O)N[C@@H](CC(=O)O)C(=O)N[C@@H](CCCCN)C(=O)N[C@@H](Cc1ccc(O)cc1)C(=O)N[C@@H](CCCNC(=N)N)C(=O)N[C@@H](CC(C)C)C(N)=O)[C@@H](C)O [Compound 6] (Palmitoyl-MGYQKPLRSMTDKYRL-NH2; C-terminus assumed)
12 | 149 | CCCCCCCCCCCCCCCC(=O)NCC(=O)NCC(=O)N[C@@H](Cc1ccc(O)cc1)C(=O)N[C@@H](CCC(N)=O)C(=O)N[C@@H](CCCCN)C(=O)N[C@@H](CCCCN)C(=O)N[C@@H](CC(C)C)C(=O)N[C@@H](CCCNC(=N)N)C(=O)N[C@H](C(=O)N[C@@H](C)C(=O)N[C@H](C(=O)N[C@@H](CC(=O)O)C(=O)N[C@@H](CCCCN)C(=O)N[C@@H](Cc1ccc(O)cc1)C(=O)N[C@@H](CCCNC(=N)N)C(=O)N[C@@H](CC(C)C)C(N)=O)[C@@H](C)O)[C@@H](C)O [Compound 41] (Palmitoyl-GGYQKKLRTATDKYRL-NH2; C-terminus assumed)
13 | 55.2 | CCCCCCCCCCCCCCCC(=O)NCC(=O)NCC(=O)N[C@@H](Cc1ccc(O)cc1)C(=O)N[C@@H](CCC(N)=O)C(=O)N[C@@H](CCCCN)C(=O)N[C@@H](CCCCN)C(=O)N[C@@H](CC(C)C)C(=O)N[C@@H](CCCNC(=N)N)C(=O)N1CCC[C@@H]1C(=O)N1C[C@H](O)C[C@H]1C(=O)N[C@H](C(=O)N[C@@H](CC(=O)O)C(=O)N[C@@H](CCCCN)C(=O)N[C@@H](Cc1ccc(O)cc1)C(=O)N[C@@H](CCCNC(=N)N)C(=O)N[C@@H](CC(C)C)C(N)=O)[C@@H](C)O [Compound 36] (Palmitoyl-GGYQKKLR[dP][Hyp]TDKYRL-NH2; C-terminus assumed)
14 | 107 | CCCCCCCCCCCCCCCC(=O)NCC(=O)NCC(=O)N[C@@H](Cc1ccc(O)cc1)C(=O)N[C@@H](CCC(N)=O)C(=O)N[C@@H](CCCCN)C(=O)N[C@@H](CCCCN)C(=O)N1CCC[C@@H]1C(=O)N[C@@H](CCCNC(=N)N)C(=O)N1CCC[C@@H]1C(=O)N[C@@H](C)C(=O)N[C@H](C(=O)N[C@@H](CC(=O)O)C(=O)N[C@@H](CCCCN)C(=O)N[C@@H](Cc1ccc(O)cc1)C(=O)N[C@@H](CCCNC(=N)N)C(=O)N[C@@H](CC(C)C)C(N)=O)[C@@H](C)O [Compound 28] (Palmitoyl-GGYQKK[dP]R[dP]ATDKYRL-NH2; C-terminus assumed)
